In publication PMC7395068, “The evolution of strategies to minimise the risk of human drug-induced liver injury (DILI) in drug discovery and development” (Archives of Toxicology, 2020):
Where two headings read alike, the source gives them in different places.

How the values were obtained:
[1] = test system: HepG2 cells; details: cited from earlier work; for Cluser analysis / Structural based (HCI): In vitro Assay, ref Persson 2013
[2] = test system: HepG2 C3A spheroid, BSEP, Glu/Gal in HepG2 cells, bioactivation; details: cited from earlier work
[3] = test system: HepG2; design: method as in Albrecht 2019; details: In vitro Assay; ref Albrecht 2019; cited from earlier work
[4] = test system: hLiMTs; assay: Combined HCI (HCS) and cellular ATP 3D assay in hLiMTs
[5] = test system: PHH; details: In vitro Assay; ref Albrecht 2019; cited from earlier work
[6] = test system: HepaRG spheroids; assay: Combined HCI (HCS) and cellular ATP 3D assay in HepaRG spheroids
[7] = test system: human hepatocytes; details: cited from earlier work; for Structural based (HCI): In vitro Assay, ref Xu 2008
[8] = test system: rBsep; details: In vitro Assay; ref Dawson 2012; cited from earlier work
[9] = cited from earlier work
[10] = test system: PHH; details: cited from earlier work
[11] = test system: hu-MPCC; details: In vitro Assay; ref Khetani 2012; cited from earlier work
[12] = cited from earlier work; remark: listed apart in the source
[13] = test system: PHH spheroids; details: cited from earlier work; for hLiMTs ATP <20 x Cmax: In vitro Assay, ref Vorrink 2018
[14] = test system: HepG2 cells; details: cited from earlier work; for Structural based (HCI): In vitro Assay, ref O'Brien 2006
[15] = ref Chen 2011; cited from earlier work
[16] = test system: hLiMTs; details: cited from earlier work
[17] = test system: THLE or HepG2 cells, isolated mitochondria, BSEP; details: cited from earlier work; for Ro2 Hybrid HRM Score / Partition Hybrid HRM Score: In vitro Assay, ref Aleo 2019
[18] = test system: RMPCC's; details: In vitro Assay; ref Khetani 2012; cited from earlier work
[19] = test system: HepG2 cells, primary human hepatocytes; details: In vitro Assay; ref Garside 2014; cited from earlier work
[20] = test system: rBsep; design: method as in Dawson 2012; details: In vitro Assay; ref Dawson 2012; cited from earlier work
[21] = test system: THLE-Null and THLE-3A4 cells; details: In vitro Assay; ref Gustafsson 2014; cited from earlier work
[22] = test system: isolated mouse liver mitochondria; details: In vitro Assay; ref Porceddu 2012; cited from earlier work
[23] = test system: Upcyte human hepatocytes; details: In vitro Assay; ref Tolosa 2019; cited from earlier work
[24] = Microtissue model structural based (HCI), combined HCS and ATP, MEC < 25 × Cmax.tot cut-off
[25] = In vitro Assay, ref Proctor 2017
[26] = Modeled in vitro assays (cytotoxicity, mitochondrial dysfunction, BSEP), ref Aleo et al. 2019

O=C1CC2(CCCC2)CC(=O)N1CCCCN1CCN(c2ncccn2)CC1 [buspirone, reference compound]
Cluser analysis [1]: -VE | Structural based (HCI) [1]: -VE | DILI in vitro assay prediction, Persson (2013) ([1]; Structural based (HCI), HepG2, ref Persson et al. 2013): -VE | Bayesian Machine Learning DILI prediction, Williams (2019) ([2]; Bayesian modeling, ref Williams et al. 2019): -VE | Bayesian Machine Learning ([2]; In vitro Assay, ref Williams 2019): -VE | Cytotoxicity HepG2 48 hrs [3]: -VE | AC50 ([4]; Homo sapiens, read-out: ATP endpoint AC50): 5.15 µM | minimal effective concentration ([4]; Homo sapiens, read-out: ATP endpoint MEC): 3.12 µM | DILI prediction hLiMTs (HCS-MEC) [4, 24]: -VE | hLiMTs <25x Avg Cmax ATP ([4]; hLiMTs, ATP endpoint, cut-off <25x Avg Cmax): -ve | hLiMTs <100x Avg Cmaxu ATP ([4]; hLiMTs, ATP endpoint, cut-off <100x Avg Cmaxu): -ve | hLiMTs <25x Avg Cmax HCS ([4]; hLiMTs, HCS endpoints, cut-off <25x Avg Cmax): -ve | hLiMTs <100x Avg Cmaxu HCS ([4]; hLiMTs, HCS endpoints, cut-off <100x Avg Cmaxu): -ve | hLiMTs <25x Avg Cmax All ([4]; hLiMTs, all endpoints (ATP and HCS), cut-off <25x Avg Cmax): -ve | hLiMTs Cmax max All ([4]; hLiMTs, all endpoints, Cmax max used): -ve | hLiMTs Cmax min All ([4]; hLiMTs, all endpoints, Cmax min used): -ve | hLiMTs <10 uM All ([4]; hLiMTs, all endpoints, cut-off <10 uM): +ve (<10 uM) | hLiMTs <100x Avg Cmaxu All ([4]; hLiMTs, all endpoints, cut-off <100x Avg Cmaxu): -ve | Cytotoxicity PHH 48 hrs [5]: -VE | HepaRG <25x Avg Cmax ATP ([6]; HepaRG, ATP endpoint, cut-off <25x Avg Cmax): -ve | HepaRG <100x Avg Cmaxu ATP ([6]; HepaRG, ATP endpoint, cut-off <100x Avg Cmaxu): -ve | HepaRG <25x Avg Cmax HCS ([6]; HepaRG, HCS endpoints, cut-off <25x Avg Cmax): -ve | HepaRG <100x Avg Cmaxu HCS ([6]; HepaRG, HCS endpoints, cut-off <100x Avg Cmaxu): -ve | HepaRG <25x Avg Cmax All ([6]; HepaRG, all endpoints (ATP and HCS), cut-off <25x Avg Cmax): -ve | HepaRG Cmax max All ([6]; HepaRG, all endpoints, Cmax max used): -ve | HepaRG Cmax min All ([6]; HepaRG, all endpoints, Cmax min used): -ve | HepaRG <10 uM All ([6]; HepaRG, all endpoints, cut-off <10 uM): -ve | HepaRG <100x Avg Cmaxu All ([6]; HepaRG, all endpoints, cut-off <100x Avg Cmaxu): -ve | DILI prediction HepaRG spheroids (HCS-MEC) [6, 24]: -VE | Structural based (HCI) [7]: -VE | DILI in vitro assay prediction, Xu (2008) ([7]; Structural based (HCI), human hepatocytes, ref Xu et al. 2008): -VE | Inhibition of rBsep cutoff<1& cmax u>.2 [8]: -VE | Inhibition of rBsep cutoff<3 [8]: -VE | Assigned DILI category ([9]; Chen et al. 2016 or literature alignment, ref Chen et al. 2016): 1 | In vivo DILI ([9]; […]): -VE | In vivo DILI ([9]; ref Albrecht 2019): -VE | In vivo DILI ([9]; ref Dawson 2012): -VE | In vivo DILI ([9]; ref Garside 2014): -VE | In vivo DILI ([9]; ref Gustafsson 2014): -VE | In vivo DILI ([9]; ref Khetani 2012): -VE | In vivo DILI ([9]; ref O'Brien 2006): -VE | In vivo DILI ([9]; ref Persson 2013): -VE | In vivo DILI ([9]; ref Proctor 2017): -VE | In vivo DILI ([9]; ref Schadt 2015): -VE | In vivo DILI ([9]; ref Vorrink 2018): -VE | In vivo DILI ([9]; ref Williams 2019): -VE | In vivo DILI ([9]; ref Xu 2008): -VE | PHH/100uM, Proctor (2017) ([10]; 2D PHH, ATP, IC50 threshold 100 µM, ref Proctor et al. 2017): -VE | PHH ATP <100uM [10, 25]: -VE | HMPCC's [11]: -VE | DILI severity category (Chen et al. [2016]) ([12]; LTKB DILIrank category, ref Chen et al. 2016): Ambiguous | DILI severity category (Chen 2016) ([12]; human DILI classification, LTKB DILIrank, ref Chen et al. 2016): Ambiguous | DILI severity category ([12]; human DILI severity, ref Chen et al.): Ambiguous | DILI +VE (5-8), DILI -VE (-4) ([12]; ref Chen 2016): -VE | DILI severity category ([12]; ref Chen 2016): Ambiguous DILI-concern | hLiMTs ATP <20 x Cmax [13]: -VE | DILI in vitro assay prediction, Vorrink (2018) ([13]; PHH spheroids, ATP, 14 days, IC20 < 20 × Cmax.tot, ref Vorrink et al. 2018): -VE | Structural based (HCI) [14]: -VE | DILI in vitro assay prediction, O'Brien (2006) ([14]; Structural based (HCI), HepG2, ref O'Brien et al. 2006): -VE | DILI Score (FDA) (1-8) [15]: 3 | hLiMTs ATP <100uM [16, 25]: -VE | hLiMTs/100uM, Proctor (2017) ([16]; hLiMTs, ATP, IC50 threshold 100 µM, ref Proctor et al. 2017): -VE | Ro2 Hybrid HRM Score [17]: -VE | Rule of Two hybrid HRM Score ≥3, Aleo (2019) [17, 26]: -VE | Rule of Two hybrid HRM Score ≥8, Aleo (2019) [17, 26]: -VE | RMPCC's [18]: -VE | Cluster 1-6 +VE Assay [19]: +VE

CCC(=O)O[C@]1(C(=O)CCl)[C@@H](C)C[C@H]2[C@@H]3CCC4=CC(=O)C=C[C@]4(C)[C@@]3(F)[C@@H](O)C[C@@]21C [clobetasol propionate]
Inhibition of rBsep cutoff<1& cmax u>.2 [20]: -VE | Inhibition of rBsep cutoff<3 [20]: +VE | In vivo DILI ([9]; ref Dawson 2012): -VE | In vivo DILI ([9]; ref Garside 2014): -VE | In vivo DILI ([9]; ref Gustafsson 2014): -VE | THLE-Null [21]: -VE | THLE-Null/3A4 [21]: -VE | Cluster 1-6 +VE Assay [19]: -VE

Cc1onc(-c2ccccc2Cl)c1C(=O)N[C@@H]1C(=O)N2[C@@H]1SC(C)(C)[C@@H]2C(=O)O [cloxacillin]
Inhibition of rBsep cutoff<1& cmax u>.2 [20]: -VE | Inhibition of rBsep cutoff<3 [20]: -VE

CC(C)(S)[C@@H](N)C(=O)O [d-penicillamine]
Inhibition of rBsep cutoff<1& cmax u>.2 [20]: -VE | Inhibition of rBsep cutoff<3 [20]: -VE | in vitro data EC2<=1x Cmax [22]: +VE | in vitro data EC20<=2uM [22]: -VE | In vivo DILI ([9]; ref Dawson 2012): +VE | In vivo DILI ([9]; ref Gustafsson 2014): +VE | In vivo DILI ([9]; ref Porceddu 2012): +VE | THLE-Null [21]: -VE | THLE-Null/3A4 [21]: -VE

Cc1onc(-c2c(Cl)cccc2Cl)c1C(=O)N[C@@H]1C(=O)N2[C@@H]1SC(C)(C)[C@@H]2C(=O)O [dicloxacillin]
Inhibition of rBsep cutoff<1& cmax u>.2 [20]: -VE | Inhibition of rBsep cutoff<3 [20]: +VE | In vivo DILI ([9]; ref Dawson 2012): +VE | In vivo DILI ([9]; ref Garside 2014): +VE | In vivo DILI ([9]; ref Gustafsson 2014): +VE | THLE-Null [21]: -VE | THLE-Null/3A4 [21]: -VE | DILI +VE (5-8), DILI -VE (-4) ([12]; ref Chen 2016): +VE | DILI severity category ([12]; ref Chen 2016): vLess-DILI-Concern | Cluster 1-6 +VE Assay [19]: +VE

CCC(=O)O[C@H]1[C@H](O[C@@H]2[C@@H](C)[C@H](O[C@H]3C[C@@](C)(OC)[C@@H](O)[C@H](C)O3)[C@@H](C)C(=O)O[C@H](CC)[C@@](C)(O)[C@H](O)[C@@H](C)C(=O)[C@H](C)C[C@@]2(C)O)O[C@H](C)C[C@@H]1N(C)C [erythromycin estolate]
Inhibition of rBsep cutoff<1& cmax u>.2 [20]: +VE | Inhibition of rBsep cutoff<3 [20]: +VE | Structural based (HCI) [7]: +VE | In vivo DILI ([9]; ref Aleo 2019): +VE | In vivo DILI ([9]; ref Dawson 2012): +VE | In vivo DILI ([9]; ref Xu 2008): +VE | Partition Hybrid HRM Score [17]: +VE | Ro2 Hybrid HRM Score [17]: +VE

COc1ccc(Cl)cc1C(=O)NCCc1ccc(S(=O)(=O)NC(=O)NC2CCCCC2)cc1 [glibenclamide]
Inhibition of rBsep cutoff<1& cmax u>.2 [20]: +VE | Inhibition of rBsep cutoff<3 [20]: +VE | Cluster 1-6 +VE Assay [19]: +VE

CC(C)NCC(O)c1ccc(O)c(O)c1 (centres unmarked) [isoproterenol]
Cluser analysis [1]: -VE | Structural based (HCI) [1]: -VE | Structural based (HCI) [7]: -VE | Inhibition of rBsep cutoff<1& cmax u>.2 [8]: -VE | Inhibition of rBsep cutoff<3 [8]: -VE | Upcytes multi donor assay 14day data [23]: -VE | In vivo DILI ([9]; ref Aleo 2019): -VE | In vivo DILI ([9]; ref Dawson 2012): -VE | In vivo DILI ([9]; ref Garside 2014): -VE | In vivo DILI ([9]; ref Gustafsson 2014): -VE | In vivo DILI ([9]; ref O'Brien 2006): -VE | In vivo DILI ([9]; ref Persson 2013): -VE | In vivo DILI ([9]; ref Tolosa 2019): -VE | In vivo DILI ([9]; ref Vorrink 2018): -VE | In vivo DILI ([9]; ref Xu 2008): -VE | THLE-Null [21]: -VE | THLE-Null/3A4 [21]: -VE | DILI +VE (5-8), DILI -VE (-4) ([12]; ref Chen 2016): -VE | DILI severity category ([12]; ref Chen 2016): vNo-DILI-Concern | hLiMTs ATP <20 x Cmax [13]: -VE | Structural based (HCI) [14]: -VE | Partition Hybrid HRM Score [17]: -VE | Ro2 Hybrid HRM Score [17]: -VE | Cluster 1-6 +VE Assay [19]: +VE

COc1ccc(C(=O)NCc2cccnc2)cc1C(=O)NCc1cccnc1 [picotamide]
Inhibition of rBsep cutoff<1& cmax u>.2 [20]: -VE | Inhibition of rBsep cutoff<3 [20]: -VE | In vivo DILI ([9]; ref Dawson 2012): -VE | In vivo DILI ([9]; ref Gustafsson 2014): -VE | In vivo DILI ([9]; ref O'Brien 2006): -VE | Structural based (HCI) [14]: +VE (lowest HCI endpoint IC50 (or in the absence of dose–response < 100 µM) < 30 × total human plasma exposure levels (Cmax.tot))
